Assay results reported in patent publication US5582828A, “Active fractions of Cordyceps sinensis and method of isolation thereof” (Lin; Ching-Yuang, priority 1995, dated 1996).

Experiments:
[1] = system: cardiovascular system; conditions: in vivo; cited from earlier work
[2] = system: activated human mesangial cells; test: in vitro inhibition of activated (IL-1 and IL-6) human mesangial cells, [3H]-thymidine incorporation; type: cell-based; conditions: Mesangial cell, n = 3, read-out: in vitro inhibitory action
Description: In terms of activation of mesangial cells, [^3 H]-thymidine incorporation method is used as an index of DNA synthesis. Cultured human mesangial cells are first activated by exposing them to IL-1 and IL-6. The decrease in [^3 H]-thymidine incorporation after exposure to various fractions and compounds in Cordyceps sinensis was used as the in vitro screening method for identifying potential substances which are capable of inhibiting the proliferation of activated human mesangial cells.
Two methods of investigation (in vitro and in vivo) were adopted for the invention discussed in the patent application. One of these utilizes in vitro suppression of activated human mesangial cells as its model: the activity index used is the degree to which activation by interleukins 1 and 6 is suppressed by treatment with the fractions and purified compound H1-A of Cordyceps sinensis. Isotope-labeled [^3 H]-thymidine converted into [^3 H]-thymidine incorporation is the basis by which the degree of activation of mesangial cells is determined (please see Tables 1-1 to 1-5).

Structure (SMILES)	cardiovascular effect [1]	inhibition at 20 µM ([2]; Table 1-5, 20 μM) [%]	inhibition at 50 µM ([2]; Table 1-5, 50 μM) [%]	inhibition at 75 µM ([2]; Table 1-5, 75 μM) [%]	inhibition at 100 µM ([2]; Table 1-5, 100 μM) [%]
Nc1ncnc2c1ncn2[C@@H]1O[C@H](CO)[C@@H](O)[C@H]1O [Adenosine]	acts to relax vascular smooth muscle and causes vasodilatation				
CC[C@H](C)C(=O)O[C@H]1C[C@@H](C)C=C2C=C[C@H](C)[C@H](CC[C@@H]3C[C@@H](O)CC(=O)O3)[C@H]21 [Lovastatin, lovastatin]		19.8 ± 2	37.1 ± 4.3	60.9 ± 3.8	73 ± 4
